The source of these data is ChEMBL document CHEMBL4219081, “Discovery of 1,2,3,4-tetrahydropyrimido[1,2-a]benzimidazoles as novel class of corticotropin releasing factor 1 receptor antagonists” (Bioorg Med Chem, 2018).

≈ marks a conversion by molar mass, not a printed value.

Data set [1] is described as follows: Lipophilicity, log D of the compound at pH 7.4. In kind it is physicochemical. Particulars: buffer.
Data set [2] in a line: Solubility of the compound in JP2 buffer at pH 6.8 at 10 mmol/L. In kind it is physicochemical.
Data set [3] in a line: Oral bioavailability in rat at 1 mg/kg administered as cassette dose. In kind it is ADME, organism-based. The following applies: in vivo.
A short description of data set [4]: Kinetic solubility in PBS. In kind it is physicochemical. The following applies: read-out: Kinetic_solubility.
Data set [5] is described as follows: Oral bioavailability in rat at 5 mg/kg administered as cassette dose. In kind it is ADME, organism-based. The following applies: in vivo.

Take `COc1ccc(N2CCCn3c2nc2c(Cl)ccc(C(OC(F)F)C(F)(F)F)c23)c(C)c1` (racemic): the pH-dependent lipophilicity (logD) – broadly, lipophilicity at a set pH, counting ionised and neutral species – in data set [1] came to 3.76. Moreover, the solubility (usually the concentration that dissolves in the medium under given conditions) in data set [2] was found to be 1.5 µg/mL (≈ 3.15 µM).

Take `FC(F)OC(c1ccc(Cl)c2nc3n(c12)CCCN3c1ccc(Cl)cc1Cl)C(F)(F)F` (racemic): the logD in data set [1] is 4.3. Moreover, the solubility in data set [2] was less than 0.09 µg/mL. In the same order, the values of `COc1nc(C)c(N2CCCn3c2nc2c(Cl)ccc(C(OC(F)F)C(F)(F)F)c23)c(C)n1` (racemic) are 3.08 and 54 µg/mL (≈ 110 µM). The compound `CCC(=O)c1ccc(Cl)c2nc3n(c12)CCCN3c1ccc(Cl)cc1Cl` returned a logD in data set [1] of 4.01.

The compound `CCc1nc(C)nc(CC)c1N1CCCn2c1nc1c(Cl)ccc(C(OC(F)F)C(F)(F)F)c12` (racemic) gave a logD in data set [1] of 3.52. For the same compound, the solubility in data set [2] amounted to 46 µg/mL (≈ 91.3 µM).

In data set [1], `CCC(O)c1ccc(Cl)c2nc3n(c12)CCCN3c1ccc(Cl)cc1Cl` (configuration not stated) registered a logD of 3.57. On to `CCc1nc(C)c(N2CCCn3c2nc2c(Cl)ccc(C(OC(F)F)C(F)(F)F)c23)c(C)n1` (racemic), for which, in data set [1], the logD worked out at 3.21. The compound also yielded a solubility in data set [2] of 37 µg/mL (≈ 75.5 µM). `CCC(C#N)c1ccc(Cl)c2nc3n(c12)CCCN3c1ccc(Cl)cc1Cl` (configuration not stated) registered a logD in data set [1] of 3.69. `COc1ccc(N2CCCn3c2nc2c(Cl)ccc(C(OC(F)F)C(F)(F)F)c23)c(C)n1` (racemic): in data set [1], the logD was 3.43. Moreover, the solubility in data set [2] stood at 17 µg/mL (≈ 35.7 µM). For `CCN(CC)c1ccc(Cl)c2nc3n(c12)CCCN3c1ccc(Cl)cc1Cl`, the pH-dependent lipophilicity (logD) in data set [1] was 5.25. This compound also registered a solubility in data set [2] of less than 0.06 µg/mL. Further, in data set [3], the bioavailability – broadly, dose-corrected exposure relative to a reference, in per cent – turned out to be 4.1%. `COc1nc(C)c(N2CCCn3c2nc2c(Cl)ccc([C@@H](OC(F)F)C(F)(F)F)c23)c(C)n1` showed a logD in data set [1] of 3.18. For the same compound, the solubility kinetic in data set [4] was determined as 55 µg/mL (≈ 112 µM). In addition, the bioavailability in data set [5] turned out to be 68%. Take `Cc1nc(C)c(N2CCCn3c2nc2c(Cl)ccc(C(OC(F)F)C(F)(F)F)c23)c(C)n1` (racemic): the logD in data set [1] was found to be 2.87. This compound also yielded a solubility in data set [2] of 71 µg/mL (≈ 149 µM).

`COc1nc(C)nc(OC)c1N1CCCn2c1nc1c(Cl)ccc(C(OC(F)F)C(F)(F)F)c12` (racemic): in data set [1], the logD turned out to be 3.71. Besides, the solubility in data set [2] was 14 µg/mL (≈ 27.6 µM).

The compound `CCC(c1ccc(Cl)c2nc3n(c12)CCCN3c1ccc(Cl)cc1Cl)n1ccnc1` (configuration not stated) gave a logD in data set [1] of 3.53. Take `CCC(OC)c1ccc(Cl)c2nc3n(c12)CCCN3c1ccc(Cl)cc1Cl` (configuration not stated): the log distribution coefficient (logD) in data set [1] was found to be 4.38.
